From patent publication US20130079309A1, “Method Of Treating Acute Lung Injury Using Sphingosine 1 Phosphate Analogs Or Sphingosine 1 Phosphate Receptor Agonists” (The Board of Trustees of the University of Illinois, priority 2010, published 2013)

Experiments:
[1] = tested on: lung vascular leakage in RILI mice; experiment: ViSen FMT lung imaging of intravascular probe extravasation in RILI mice; format: in vivo, mouse; conditions: 0.1 mg/kg, 25 Gy, 6 weeks
Protocol: Lung imaging studies were also performed with assessment of RILI-induced extravasation of an intravascular probe.
To assess microvascular changes associated with RILI in real-time, mice were imaged with ViSen FMT 1500 Quantitative Tomography In Vivo Imaging System. Intergisens^750 NIR (ViSen Medicals, Bedford, Mass.) was used as a probe, which targets the vasculature as a selective non-peptide small molecule integrin αvβ3 antagonist and a near-infrared fluorochrome. Mice were injected with probe ([…], IV) at 6 weeks post radiation and imaged 24 hrs later. Probe intensity was quantified using TrueQuant 3D software (VisSen Medicals).

S1P receptor 1 (S1PR1) = target: T1, S1P receptor 1 (S1PR1) (Mus musculus, UniProt O08530); experiment: S1PR1 levels in lung homogenates of bleomycin mice by Western blotting; format: in vivo; conditions: 14 days after bleomycin
T1 construct: Lung homogenates were collected 14 days after bleomycin instillation; from tissue; host or cells: mouse lung (C57/BL6, bleomycin-injured)
Protocol: Lung homogenates were collected 14 days after bleomycin instillation. S1PR1 protein expression was determined by Western blotting (representative blots shown), quantified by densitometry, and normalized to actin concentration in the samples. Mean±S.D. is shown. N=2-3 animals per group.
As discussed above, (S)-FTY720-phosphonate maintains S1PR1 expression in mouse lungs after 24 hr relative to other S1PR1 agonists (FIG. 17). The data shown in FIG. 23 extend these observations to 14 days.

ERK = experiment: Western blotting of HPAEC lysates for phospho-ERK; format: cell-based, human; conditions: 5 min
Protocol: (§1) After treatment as outlined for individual experiments, confluent HPAEC were lysed for Western blotting with phospho-MLC, pan-MLC, phospho-ERK, or pan-ERK antibodies. […] Membranes were then immunoblotted with primary antibodies (1:500-1000, 4° C., overnight) followed by secondary antibodies conjugated to horseradish peroxidase (1:5000, room temperature, 30 min) and detected with enhanced chemiluminescence (Pierce ECL or SuperSignal West Dura; Pierce Biotechnology, Rockford, Ill.) on Biomax MR film (Carestream Health, Rochester, N.Y.).

HPAEC [2] = experiment: Transwell transendothelial permeability assay (FITC-dextran); format: cell-based, human; conditions: 1 μM (3R, 3S 25 μM), 1 h before FITC-dextran, 2-h incubation
Protocol: As a complementary approach to further characterize the barrier-protective effects of these FTY720 analogs in vitro, the permeability of FITC-labeled dextran across the pulmonary EC monolayer was assayed in response to treatment by the FTY720 analogs. […] Data were normalized to unstimulated control. n=3 independent experiments per condition; *, p<0.01 versus unstimulated condition (see FIG. 26).

HPAEC [3] = experiment: Immunofluorescence of F-actin cytoskeletal rearrangement; format: cell-based, human; conditions: 1 μM, 5 min (FTY720 5 and 30 min)
Protocol: Immunofluorescence was used to assess cytoskeletal rearrangements of […] cells in response to treatment with FTY720 analogs. Confluent HPAEC were stimulated with vehicle control or 1 μM S1P, 1R, 2R, or 3R for 5 min or with FTY720 (1 μM) for 30 min. EC were then fixed in 3.7% formaldehyde for 10 min, permeabilized with 0.25% Triton X-100 for 5 min, washed in PBS, blocked with 2% bovine serum albumin in Tris-buffered saline with Tween 20 for 1 h, and then incubated for 1 h at room temperature with the primary antibody of interest. After washing, EC were incubated with the appropriate secondary antibody conjugated to immunofluorescent dyes (or Texas Red-conjugated phalloidin for actin staining) for 1 h at room temperature. After further washing with Tris-buffered saline with Tween 20, coverslips were mounted using Prolong Anti-Fade Reagent (Invitrogen) and analyzed using a Nikon Eclipse TE2000 inverted microscope (Nikon, Melville, N.Y.).

MLC = experiment: Western blotting of HPAEC lysates for phospho-MLC; format: cell-based, human; conditions: 5 min
Protocol: as §1

HPAEC [4] = experiment: Intracellular calcium by Fura-2; format: cell-based, human; conditions: 1 μM
Protocol: To further explore the mechanistic differences in barrier regulation, intracellular calcium responses to the FTY720 analogs, S1P, and FTY720 were examined using Fura-2 (Harbeck et al., 2006, Sci STKE 2006: p16). HPAEC plated on 25-mm glass coverslips were loaded with 1 μM Fura-2/acetoxymethyl ester (Invitrogen, Carlsbad, Calif.) for 20 min at 37° C. in KRBH5 buffer (Krebs-Ringer-bicarbonate solution containing 119 mM NaCl, 4.7 mM KCl, 2.5 mM CaCl2, 1 mM MgCl2, 1 mM KH2PO4, 25 mM NaHCO3, mM HEPES-NaOH (pH 7.4), and 5 mM glucose). After replacement of the Fura-2 loading buffer with fresh KRBH5, coverslips were placed into the specimen stage of an inverted fluorescence microscope (Nikon TE-2000U). A Nikon Super Fluor 10× objective was used for these studies. Filters (340- and 380-nm excitation and 530-nm emission) were used for Fura-2 dual excitation ratio imaging. […] Fura-2 ratios were converted to [Ca^2+] using the equation: [Ca^2+]=(Kd′[(R−Rmin)/(Rmax−R)]×Sf/Sb) (Grynkiewicz et al., 1985, J Biol Chem 260: 3440-3450), where Kd′ is the dissociation constant for Fura-2 in the cytosol (225 nM) and Sf and Sb are the measured emission intensities at 380 nm for Ca^2+-free and Ca^2+-bound Fura-2, respectively. Data summaries for all Ca^2+ measurements are expressed as the means±S.E.

[5] = tested on: bleomycin-induced ALI in C57/BL6 mice; conditions: Shea et al., 2010; cited from earlier work
[6] = tested on: LPS-induced lung injury in C57BL/6 mice; conditions: single intraperitoneal injection; Peng et al., 2004; cited from earlier work

T1 sequence (O08530 whole entry): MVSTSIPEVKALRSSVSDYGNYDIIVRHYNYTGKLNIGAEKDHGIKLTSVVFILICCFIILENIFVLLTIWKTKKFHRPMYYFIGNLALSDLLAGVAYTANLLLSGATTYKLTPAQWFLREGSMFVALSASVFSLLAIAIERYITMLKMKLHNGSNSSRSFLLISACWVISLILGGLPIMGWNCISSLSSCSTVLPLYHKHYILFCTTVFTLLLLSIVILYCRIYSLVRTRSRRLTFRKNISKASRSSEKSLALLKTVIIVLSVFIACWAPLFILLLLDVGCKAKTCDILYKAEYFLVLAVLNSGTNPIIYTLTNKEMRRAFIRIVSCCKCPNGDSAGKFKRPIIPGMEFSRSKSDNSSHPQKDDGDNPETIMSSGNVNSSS

Compound	radiation-induced probe extravasation (probe intensity), FMT imaging [1]	S1PR1 levels in lungs, compared to FTY720-treated animals (S1P receptor 1 (S1PR1))	ERK phosphorylation (ERK)	EC permeability to FITC-dextran vs control EC (HPAEC [2])	cortical actin ring formation / F-actin rearrangement (HPAEC [3])	MLC phosphorylation (MLC)	intracellular calcium [Ca2+]i (HPAEC [4])	lung injury and mortality in bleomycin-injured mice on prolonged exposure [5]	murine LPS induced pulmonary injury, 24 hours after LPS [6]
CCCCCCCCc1ccc(CC[C@@](N)(CO)CCP(=O)(O)O)cc1 [1S, (S)-3-amino-3-(hydroxymethyl)-5-(4-octylphenyl)pentylphosphonic acid]	significant decreases	higher levels of S1PR1	failed to induce phosphorylation	–	–	–	–	–	–
CCCCCCCCc1ccc(CCC(N)(CO)CO)cc1 [FTY720, 2-amino-2-[2-(4-octylphenyl)ethyl]propane-1,3-diol]	no evidence of protection	–	–	significantly decreased permeability	failed to elicit cortical actin ring formation	Neither FTY720 nor any of its analogs induced significant MLC phosphorylation	only S1P produced a transient Ca^2+ spike	increased lung injury and mortality	attenuate murine LPS induced-pulmonary injury
